# Publication PMC4175002, “The Design and Synthesis of Potent and Selective Inhibitors of Trypanosoma brucei Glycogen Synthase Kinase 3 for the Treatment of Human African Trypanosomiasis” (Journal of Medicinal Chemistry, 2014)
# Assays:
# panel of 80 human PKs = test: Mammalian kinase profiling, whole panel (4f, 4m, 4y); format: biochemical; details: 10 μM
# Protocol: (§1) To assess the selectivity of the aminopyrazole inhibitors, remaining activity at 10 μM concentration was measured for compounds 4f, 4m, and 4y against a panel of 80 human PKs and for compound 9g against 124 human PKs. […] Compound 4m inhibited only two PKs, namely GSK3β and CDK2, at more than 80%.
# (§2) Selected compounds were screened against a panel of mammalian kinases routinely run by the Division of Signal Transduction Therapy (DSTT) at the University of Dundee in duplicate at 10 μM.[32] Enzymes included in the panel and assay conditions are reported in the literature. All biochemical assays are run below the Km^app for the ATP for each enzyme, allowing comparison of inhibition across the panel.
# TbGSK3 short = target: T1, TbGSK3 short (Trypanosoma brucei brucei, UniProt Q388M1); test: Radiometric 96-well Flashplate potency assay, TbGSK3; format: biochemical
# T1 sequence (Q388M1 1-352): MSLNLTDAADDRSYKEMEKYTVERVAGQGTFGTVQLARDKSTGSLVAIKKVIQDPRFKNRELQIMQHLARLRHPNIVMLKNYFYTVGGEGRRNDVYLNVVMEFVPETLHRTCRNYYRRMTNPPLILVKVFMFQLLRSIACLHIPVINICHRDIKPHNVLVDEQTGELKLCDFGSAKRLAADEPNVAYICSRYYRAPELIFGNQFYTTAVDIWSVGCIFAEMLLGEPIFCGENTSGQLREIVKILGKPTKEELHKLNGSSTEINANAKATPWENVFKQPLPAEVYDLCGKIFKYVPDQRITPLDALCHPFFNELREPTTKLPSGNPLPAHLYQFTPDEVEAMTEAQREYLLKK
# Protocol: For compound potency determinations, a radiometric 96-well Flashplate assay (PerkinElmer) was adopted. Compounds were solubilized in DMSO at a top concentration of 3 mM and serially diluted to achieve 10-point titration of final assay concentrations from 30 μM to 0.3 nM with a final DMSO concentration of 1% (v/v). The reaction mixtures contained 1 μM biotinylated GSP2 substrate, 1 μM ATP, 3.7 KBq/well [γ-33P]-ATP and 2.5 nM TbGSK3 in the TbGSK3 kinase assay buffer. GSK3 inhibitors were screened for selectivity assessment also against HsGSK3β. For HsGSK3 assay, the reaction mixes contained 1 μM biotinylated GSP2 substrate, 2 μM ATP, 7.4 KBq/well [γ-33P]-ATP and 15 nM HsGSK3β in the TbGSK3 kinase assay buffer (25 mM Tris-HCl, pH 7.5, 10 mM MgCl2, 5 mM DTT, 0.02% CHAPS, 2 U/mL heparin). For HsCDK2/cyclin A assay, the reaction mixtures contained 1 mM CDK5 biotinylated peptide substrate (Biotin-C6-PKTPKKAKKL), 1 μM ATP, 7.4 KBq/well [γ-^33P]-ATP and 2 nM HsCDK2/cyclin A in the kinase assay buffer (50 mM Tris-HCl, pH 7.5, 10 mM MgCl2, 2 mM DTT, 100 mM NaCl, 0.2 mM EGTA, 0.02% (v/v) Brij35).
# The statistical significance of the compound potency (IC50) was based on the performance of standard molecules which have been tested to a high replication. In the case of TbGSK3 short assay, the standard compound GW8510 was tested 93 times across 9 independent runs. […] The minimum significant ratio (MSR) of 0.4 was evaluated considering the following formula: [drawing 1] where SD is the standard deviation and N the number of replicate values routinely used for the assay (2 in our case).[31] This implies that a difference of >0.4 in pIC50 can be considered statistically significant for this assay.
# Src = target: T2, Src (Homo sapiens, UniProt P12931); test: Mammalian kinase profiling (DSTT panel); format: biochemical; details: 10 μM; average percentage of remaining activity
# T2 construct: purchased Division of Signal Transduction Therapy (DSTT), University of Dundee
# T2 sequence (P12931 whole entry): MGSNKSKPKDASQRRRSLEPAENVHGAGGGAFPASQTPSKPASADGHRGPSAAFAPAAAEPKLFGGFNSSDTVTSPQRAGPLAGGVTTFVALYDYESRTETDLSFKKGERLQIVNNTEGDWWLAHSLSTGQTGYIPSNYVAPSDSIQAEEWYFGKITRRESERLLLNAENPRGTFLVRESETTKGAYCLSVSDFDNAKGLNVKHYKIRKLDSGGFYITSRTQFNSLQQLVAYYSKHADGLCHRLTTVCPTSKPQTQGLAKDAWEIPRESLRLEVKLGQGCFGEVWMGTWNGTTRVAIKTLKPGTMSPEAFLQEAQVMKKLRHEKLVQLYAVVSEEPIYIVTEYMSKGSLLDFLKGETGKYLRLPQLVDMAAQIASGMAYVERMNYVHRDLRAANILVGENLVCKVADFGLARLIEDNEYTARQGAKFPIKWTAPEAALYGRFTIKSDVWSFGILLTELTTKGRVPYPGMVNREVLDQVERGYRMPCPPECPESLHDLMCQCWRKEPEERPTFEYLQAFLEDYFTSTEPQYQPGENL
# PLK1 = target: T3, PLK1 (Homo sapiens, UniProt P53350); test: Mammalian kinase profiling (DSTT panel); format: biochemical; details: 10 μM; average percentage of remaining activity
# T3 construct: purchased Division of Signal Transduction Therapy (DSTT), University of Dundee
# T3 sequence (P53350 whole entry): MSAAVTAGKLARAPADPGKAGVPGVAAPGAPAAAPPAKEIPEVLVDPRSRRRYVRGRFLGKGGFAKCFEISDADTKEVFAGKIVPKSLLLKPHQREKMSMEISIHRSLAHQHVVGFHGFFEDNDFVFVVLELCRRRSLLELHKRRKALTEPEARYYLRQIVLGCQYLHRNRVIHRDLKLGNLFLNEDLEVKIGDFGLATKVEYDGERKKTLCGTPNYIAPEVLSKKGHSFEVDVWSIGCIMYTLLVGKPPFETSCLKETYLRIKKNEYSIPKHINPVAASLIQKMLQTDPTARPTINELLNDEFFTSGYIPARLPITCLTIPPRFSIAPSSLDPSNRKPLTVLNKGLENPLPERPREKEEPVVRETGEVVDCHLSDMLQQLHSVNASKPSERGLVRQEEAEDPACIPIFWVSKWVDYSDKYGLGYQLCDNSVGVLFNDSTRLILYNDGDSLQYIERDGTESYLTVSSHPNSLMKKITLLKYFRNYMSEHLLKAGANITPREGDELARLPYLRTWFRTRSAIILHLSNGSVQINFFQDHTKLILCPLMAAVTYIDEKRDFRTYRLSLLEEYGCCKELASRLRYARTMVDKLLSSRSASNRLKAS
# MARK3 = target: T4, MARK3 (Homo sapiens, UniProt P27448); test: Mammalian kinase profiling (DSTT panel); format: biochemical; details: 10 μM; average percentage of remaining activity
# T4 construct: purchased Division of Signal Transduction Therapy (DSTT), University of Dundee
# EF2K = target: T5, EF2K (Homo sapiens, UniProt O00418); test: Mammalian kinase profiling (DSTT panel); format: biochemical; details: 10 μM; average percentage of remaining activity
# T5 construct: purchased Division of Signal Transduction Therapy (DSTT), University of Dundee
# CSK = target: T6, CSK (Homo sapiens, UniProt P41240); test: Mammalian kinase profiling (DSTT panel); format: biochemical; details: 10 μM; average percentage of remaining activity
# T6 construct: purchased Division of Signal Transduction Therapy (DSTT), University of Dundee
# PHK = target: T7, PHK (Homo sapiens, UniProt Q16816); test: Mammalian kinase profiling (DSTT panel); format: biochemical; details: 10 μM; average percentage of remaining activity
# T7 construct: purchased Division of Signal Transduction Therapy (DSTT), University of Dundee
# T7 sequence (Q16816 whole entry): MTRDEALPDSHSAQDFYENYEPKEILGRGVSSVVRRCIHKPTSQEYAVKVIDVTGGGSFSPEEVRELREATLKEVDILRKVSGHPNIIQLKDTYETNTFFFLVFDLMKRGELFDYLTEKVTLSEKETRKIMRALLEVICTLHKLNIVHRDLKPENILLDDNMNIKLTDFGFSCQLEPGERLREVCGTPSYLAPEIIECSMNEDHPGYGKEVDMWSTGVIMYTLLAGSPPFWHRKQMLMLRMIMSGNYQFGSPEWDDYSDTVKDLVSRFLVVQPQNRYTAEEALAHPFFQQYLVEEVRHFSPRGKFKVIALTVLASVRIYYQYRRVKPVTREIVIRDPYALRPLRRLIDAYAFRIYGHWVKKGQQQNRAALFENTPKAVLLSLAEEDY
# IKKe = target: T8, IKKe (Homo sapiens, UniProt Q14164); test: Mammalian kinase profiling (DSTT panel); format: biochemical; details: 10 μM; average percentage of remaining activity
# T8 construct: purchased Division of Signal Transduction Therapy (DSTT), University of Dundee
# FGF-R1 = target: T9, FGF-R1 (Homo sapiens, UniProt P11362); test: Mammalian kinase profiling (DSTT panel); format: biochemical; details: 10 μM; average percentage of remaining activity
# T9 construct: purchased Division of Signal Transduction Therapy (DSTT), University of Dundee
# T9 sequence (P11362 22-822): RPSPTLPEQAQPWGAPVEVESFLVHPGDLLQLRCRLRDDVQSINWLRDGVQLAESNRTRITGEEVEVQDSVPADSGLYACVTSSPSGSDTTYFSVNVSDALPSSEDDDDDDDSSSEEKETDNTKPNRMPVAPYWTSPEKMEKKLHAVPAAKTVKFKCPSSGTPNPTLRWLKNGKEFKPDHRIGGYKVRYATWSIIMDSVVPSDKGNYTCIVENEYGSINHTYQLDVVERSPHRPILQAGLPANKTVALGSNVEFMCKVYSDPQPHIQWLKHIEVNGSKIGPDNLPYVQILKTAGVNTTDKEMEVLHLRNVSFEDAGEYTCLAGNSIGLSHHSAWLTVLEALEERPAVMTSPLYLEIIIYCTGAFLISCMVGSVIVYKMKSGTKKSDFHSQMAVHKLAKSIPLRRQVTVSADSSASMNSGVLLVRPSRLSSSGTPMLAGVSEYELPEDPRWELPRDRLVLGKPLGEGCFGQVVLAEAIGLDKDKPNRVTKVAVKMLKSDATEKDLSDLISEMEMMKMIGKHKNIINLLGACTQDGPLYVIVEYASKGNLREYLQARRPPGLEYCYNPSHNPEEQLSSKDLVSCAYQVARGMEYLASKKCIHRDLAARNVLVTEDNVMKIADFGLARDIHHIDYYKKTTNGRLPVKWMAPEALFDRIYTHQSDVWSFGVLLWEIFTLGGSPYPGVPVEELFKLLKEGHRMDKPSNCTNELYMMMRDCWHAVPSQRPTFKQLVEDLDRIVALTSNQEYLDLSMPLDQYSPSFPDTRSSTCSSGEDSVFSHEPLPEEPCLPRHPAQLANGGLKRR
# NEK6 = target: T10, NEK6 (Homo sapiens, UniProt Q9HC98); test: Mammalian kinase profiling (DSTT panel); format: biochemical; details: 10 μM; average percentage of remaining activity
# T10 construct: purchased Division of Signal Transduction Therapy (DSTT), University of Dundee
# T10 sequence (Q9HC98 whole entry): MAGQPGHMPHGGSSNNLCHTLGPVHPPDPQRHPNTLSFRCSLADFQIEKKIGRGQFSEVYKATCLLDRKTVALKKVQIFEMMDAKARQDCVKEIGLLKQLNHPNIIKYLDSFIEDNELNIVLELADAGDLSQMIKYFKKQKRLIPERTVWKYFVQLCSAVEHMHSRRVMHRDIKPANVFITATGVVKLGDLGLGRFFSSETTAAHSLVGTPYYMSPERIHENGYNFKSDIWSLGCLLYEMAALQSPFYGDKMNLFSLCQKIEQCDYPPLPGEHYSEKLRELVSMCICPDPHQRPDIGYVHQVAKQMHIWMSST
# TBK1 = target: T11, TBK1 (Homo sapiens, UniProt Q9UHD2); test: Mammalian kinase profiling (DSTT panel); format: biochemical; details: 10 μM; average percentage of remaining activity
# T11 construct: purchased Division of Signal Transduction Therapy (DSTT), University of Dundee
# CHK1 = target: T12, CHK1 (Homo sapiens, UniProt O14757); test: Mammalian kinase profiling (DSTT panel); format: biochemical; details: 10 μM; average percentage of remaining activity
# T12 construct: purchased Division of Signal Transduction Therapy (DSTT), University of Dundee
# T12 sequence (O14757 whole entry): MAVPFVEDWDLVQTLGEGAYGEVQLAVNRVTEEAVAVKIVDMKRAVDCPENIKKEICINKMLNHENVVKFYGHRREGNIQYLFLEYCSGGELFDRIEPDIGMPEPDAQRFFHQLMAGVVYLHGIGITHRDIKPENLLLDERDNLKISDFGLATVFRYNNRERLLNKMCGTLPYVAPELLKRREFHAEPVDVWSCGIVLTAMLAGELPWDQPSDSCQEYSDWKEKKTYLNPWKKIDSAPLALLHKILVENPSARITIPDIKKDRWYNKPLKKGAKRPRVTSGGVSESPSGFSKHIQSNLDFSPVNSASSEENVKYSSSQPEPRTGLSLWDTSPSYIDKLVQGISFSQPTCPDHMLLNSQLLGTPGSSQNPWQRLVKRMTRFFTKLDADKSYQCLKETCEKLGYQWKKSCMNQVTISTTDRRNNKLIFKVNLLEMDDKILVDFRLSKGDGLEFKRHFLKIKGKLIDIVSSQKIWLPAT
# BRSK2 = target: T13, BRSK2 (Homo sapiens, UniProt Q8IWQ3); test: Mammalian kinase profiling (DSTT panel); format: biochemical; details: 10 μM; average percentage of remaining activity
# T13 construct: purchased Division of Signal Transduction Therapy (DSTT), University of Dundee
# MNK2 = target: T14, MNK2 (Homo sapiens, UniProt Q9HBH9); test: Mammalian kinase profiling (DSTT panel); format: biochemical; details: 10 μM; average percentage of remaining activity
# T14 construct: purchased Division of Signal Transduction Therapy (DSTT), University of Dundee
# P38s MAPK = target: T15, P38s MAPK (Homo sapiens, UniProt O15264); test: Mammalian kinase profiling (DSTT panel); format: biochemical; details: 10 μM; average percentage of remaining activity
# T15 construct: purchased Division of Signal Transduction Therapy (DSTT), University of Dundee
# PKC zeta = target: T16, PKC zeta (Homo sapiens, UniProt Q05513); test: Mammalian kinase profiling (DSTT panel); format: biochemical; details: 10 μM; average percentage of remaining activity
# T16 construct: purchased Division of Signal Transduction Therapy (DSTT), University of Dundee
# T16 sequence (Q05513 whole entry): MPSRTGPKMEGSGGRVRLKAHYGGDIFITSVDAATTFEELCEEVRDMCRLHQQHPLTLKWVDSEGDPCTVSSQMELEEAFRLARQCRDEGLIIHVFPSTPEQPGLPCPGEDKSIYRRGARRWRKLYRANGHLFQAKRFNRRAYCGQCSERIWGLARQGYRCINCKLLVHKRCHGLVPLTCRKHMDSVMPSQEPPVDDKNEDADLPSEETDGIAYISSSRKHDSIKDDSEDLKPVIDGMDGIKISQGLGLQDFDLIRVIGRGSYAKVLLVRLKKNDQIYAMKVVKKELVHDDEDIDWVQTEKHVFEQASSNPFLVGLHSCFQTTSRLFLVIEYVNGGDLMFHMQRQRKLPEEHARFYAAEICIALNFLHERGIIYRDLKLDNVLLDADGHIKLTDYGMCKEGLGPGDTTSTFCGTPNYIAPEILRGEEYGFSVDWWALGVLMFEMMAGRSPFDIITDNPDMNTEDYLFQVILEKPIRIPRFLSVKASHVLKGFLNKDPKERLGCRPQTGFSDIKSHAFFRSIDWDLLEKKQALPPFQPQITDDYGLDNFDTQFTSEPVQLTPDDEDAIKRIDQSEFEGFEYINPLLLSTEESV
# AMPK = test: Mammalian kinase profiling (DSTT panel); format: biochemical, human; details: 10 μM; average percentage of remaining activity
# Protocol: as §1, §2
# IKKb = target: T17, IKKb (Homo sapiens, UniProt O14920); test: Mammalian kinase profiling (DSTT panel); format: biochemical; details: 10 μM; average percentage of remaining activity
# T17 construct: purchased Division of Signal Transduction Therapy (DSTT), University of Dundee
# PAK6 = target: T18, PAK6 (Homo sapiens, UniProt Q9NQU5); test: Mammalian kinase profiling (DSTT panel); format: biochemical; details: 10 μM; average percentage of remaining activity
# T18 construct: purchased Division of Signal Transduction Therapy (DSTT), University of Dundee
# Aurora B = target: T19, Aurora B (Homo sapiens, UniProt Q96GD4); test: Mammalian kinase profiling (DSTT panel); format: biochemical; details: 10 μM; average percentage of remaining activity
# T19 construct: purchased Division of Signal Transduction Therapy (DSTT), University of Dundee
# T19 sequence (Q96GD4 whole entry): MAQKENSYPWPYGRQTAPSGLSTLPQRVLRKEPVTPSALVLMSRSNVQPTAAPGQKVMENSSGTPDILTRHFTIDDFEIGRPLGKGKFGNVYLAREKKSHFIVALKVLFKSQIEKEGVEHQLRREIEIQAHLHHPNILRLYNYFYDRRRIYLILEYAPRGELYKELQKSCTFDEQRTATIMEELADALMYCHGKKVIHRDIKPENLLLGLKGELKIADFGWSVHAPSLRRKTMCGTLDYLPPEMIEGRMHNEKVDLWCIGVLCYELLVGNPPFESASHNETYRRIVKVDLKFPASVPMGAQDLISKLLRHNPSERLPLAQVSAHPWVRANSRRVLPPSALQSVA
# PKD1 = target: T20, PKD1 (Homo sapiens, UniProt Q15139); test: Mammalian kinase profiling (DSTT panel); format: biochemical; details: 10 μM; average percentage of remaining activity
# T20 construct: purchased Division of Signal Transduction Therapy (DSTT), University of Dundee
# T20 sequence (Q15139 whole entry): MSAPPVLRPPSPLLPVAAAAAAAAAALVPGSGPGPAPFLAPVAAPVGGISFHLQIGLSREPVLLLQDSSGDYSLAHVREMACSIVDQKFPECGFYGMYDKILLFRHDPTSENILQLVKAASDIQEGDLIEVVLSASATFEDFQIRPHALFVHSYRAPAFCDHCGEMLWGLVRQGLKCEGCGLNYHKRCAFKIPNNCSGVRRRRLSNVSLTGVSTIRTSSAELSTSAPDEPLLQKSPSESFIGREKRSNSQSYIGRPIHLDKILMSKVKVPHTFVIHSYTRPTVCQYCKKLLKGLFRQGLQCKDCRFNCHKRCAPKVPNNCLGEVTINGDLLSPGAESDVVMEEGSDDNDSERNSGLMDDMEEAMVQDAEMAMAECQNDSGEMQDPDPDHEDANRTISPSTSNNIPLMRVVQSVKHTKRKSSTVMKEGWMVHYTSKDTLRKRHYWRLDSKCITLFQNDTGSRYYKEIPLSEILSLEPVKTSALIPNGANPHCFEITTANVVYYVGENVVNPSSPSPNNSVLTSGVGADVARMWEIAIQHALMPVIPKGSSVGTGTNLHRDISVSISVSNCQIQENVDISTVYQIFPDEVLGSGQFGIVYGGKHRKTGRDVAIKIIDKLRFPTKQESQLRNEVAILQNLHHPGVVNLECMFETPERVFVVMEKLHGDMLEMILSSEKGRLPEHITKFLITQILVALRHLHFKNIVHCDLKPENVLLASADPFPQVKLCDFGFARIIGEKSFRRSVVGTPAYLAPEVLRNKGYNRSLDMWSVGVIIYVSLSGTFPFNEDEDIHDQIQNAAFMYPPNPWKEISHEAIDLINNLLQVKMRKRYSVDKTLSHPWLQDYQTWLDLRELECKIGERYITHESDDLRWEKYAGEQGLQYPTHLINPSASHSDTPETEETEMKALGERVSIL
# MST4 = target: T21, MST4 (Homo sapiens, UniProt Q9P289); test: Mammalian kinase profiling (DSTT panel); format: biochemical; details: 10 μM; average percentage of remaining activity
# T21 construct: purchased Division of Signal Transduction Therapy (DSTT), University of Dundee
# endogenous TbGSK3 short = details: parasite cell extracts; cited from earlier work
smiles,measurement,setting,value
"CO[C@H]1CC[C@H](NC(=O)c2n[nH]cc2NC(=O)c2ccccc2)CC1 [Compound 4f, 4-Benzamido-N-(4-methoxycyclohexyl)-1H-pyrazole-3-carboxamide]",number of PKs inhibited by more than 80%,panel of 80 human PKs,seven
same,improvement of TbGSK3 inhibition potency,"TbGSK3 short; relative to saturated six-membered rings (4a, 4b) and benzyl groups (4c, 4d, 4e), on average",~20 fold
same,Src activity compared to the control,Src,98%
same,PLK1 activity compared to the control,PLK1,100%
same,MARK3 activity compared to the control,MARK3,84%
same,EF2K activity compared to the control,EF2K,99%
same,CSK activity compared to the control,CSK,85%
same,PHK activity compared to the control,PHK,89%
same,IKKe activity compared to the control,IKKe,62%
same,FGF-R1 activity compared to the control,FGF-R1,99%
same,NEK6 activity compared to the control,NEK6,100%
same,TBK1 activity compared to the control,TBK1,63%
same,CHK1 activity compared to the control,CHK1,100%
same,BRSK2 activity compared to the control,BRSK2,55%
same,MNK2 activity compared to the control,MNK2,100%
same,P38s MAPK activity compared to the control,P38s MAPK,57%
same,PKC zeta activity compared to the control,PKC zeta,57%
"COc1cccc(OC)c1C(=O)Nc1c[nH]nc1C(=O)NC1CCC(OC)CC1 (centres unmarked) [Compound 4m, 4-(2,6-Dimethoxybenzamido)-N-(4-methoxycyclohexyl)-1H-pyrazole-3-carboxamide]",AMPK activity compared to the control,AMPK,88%
same,number of PKs inhibited by more than 80%,panel of 80 human PKs,two
same,TbGSK3 potency relative to 4f,TbGSK3 short; more potent than the unsubstituted phenyl compound 4f,approximately 10 fold
same,IKKb activity compared to the control,IKKb,100%
same,PAK6 activity compared to the control,PAK6,90%
same,Aurora B activity compared to the control,Aurora B,87%
same,PKD1 activity compared to the control,PKD1,59%
same,MST4 activity compared to the control,MST4,49%
same,affinity for endogenous TbGSK3 short,endogenous TbGSK3 short,nanomolar affinity
"CO[C@H]1CC[C@H](NC(=O)c2n[nH]cc2NC(=O)c2ccc(-c3ccccc3)o2)CC1 [Compound 4y, N-(4-Methoxycyclohexyl)-4-(5-phenylfuran-2-carboxamido)-1H-pyrazole-3-carboxamide]",AMPK activity compared to the control,AMPK,49%
same,Src activity compared to the control,Src,85%
same,PLK1 activity compared to the control,PLK1,99%
same,IKKb activity compared to the control,IKKb,36%
same,PAK6 activity compared to the control,PAK6,71%
same,MARK3 activity compared to the control,MARK3,83%
same,Aurora B activity compared to the control,Aurora B,47%
same,EF2K activity compared to the control,EF2K,92%
same,CSK activity compared to the control,CSK,73%
same,PKD1 activity compared to the control,PKD1,59%
same,PHK activity compared to the control,PHK,45%
same,IKKe activity compared to the control,IKKe,46%
same,FGF-R1 activity compared to the control,FGF-R1,72%
same,NEK6 activity compared to the control,NEK6,70%
same,TBK1 activity compared to the control,TBK1,73%
same,CHK1 activity compared to the control,CHK1,94%
same,BRSK2 activity compared to the control,BRSK2,60%
same,MNK2 activity compared to the control,MNK2,77%
same,P38s MAPK activity compared to the control,P38s MAPK,38%
same,MST4 activity compared to the control,MST4,30%
same,PKC zeta activity compared to the control,PKC zeta,60%
